The values below come from patent US9580413B2, “Substituted pyrrolidines as ROS tyrosine kinase inhibitors” (NIPPON SHINYAKU CO., LTD., priority 2012, dated 2017).

For assay [1], the target named is T1, FIG-ROS/BaF3 cell (Homo sapiens, UniProt P08922).
T1 construct: fused on or other part: Q9HD26 (Golgi-associated PDZ and coiled-coil motif-containing protein)
The assay is described as follows: Proliferation inhibitory activity test against FIG-ROS/BaF3 cell. To be noted: 3 days incubation, cell counting kit; read-out: Proliferation inhibitory activity against FIG-ROS/BaF3 cell (IC50). Format: cell-based. How it is done: A BaF3 cell which had been transformed by introducing the FIG-ROS fusion gene (derived from U118MG human glioma cell) (FIG-ROS/BaF3 Cell) was prepared on a culture medium, seeded on a 96-well plate in the number of 1×10^3/100 μL per well, and then allowed to stand in a CO2 incubator (at 37° C. and 5% CO2). As the culture medium, 10% FBS (fetal bovine serum)-incorporated RPMI-1640 was used.
2. Proliferation Inhibitory Activity Test:
A test substance was dissolved in dimethyl sulfoxide (DMSO) to 10 mM and further diluted with DMSO to 100-fold to prepare a 100 μM solution. This was diluted with a 1% DMSO-incorporated medium to concentrations of 10-fold of the concentration to be measured (10,000, 1,000, 100, 10, and 1 nM). Each of the medicine solutions was added at 11 μL per well and mixed. To a control having no medicine added thereto, a 1% DMSO-incorporated medium was added, and incubated in a CO2 incubator (at 37° C. and 5% CO2) for 3 days. After completion of the incubation, the number of live cells was counted using a cell counting kit. First of all, each cell counting kit solution was added at 5 μL per well and mixed, and incubated in a CO2 incubator (at 37° C. and 5% CO2) for 4 hours. An absorbance at 450 nm was measured with a microplate reader (Model 3550, manufactured by BIO-RAD, Benchmark, manufactured by BIO-RAD, or iMARK, manufactured by BIO-RAD) with a reference wavelength of 650 nm.
(§1) 3. Analysis of Measurement Results:
A non-linear regression analysis was performed for the measured absorbance with an SAS system (SAS Institute Inc.), and a concentration of each of the test substances of inhibiting the cell proliferation at 50% (IC50) was calculated. The proliferation inhibitory activity (IC50, nM) of each of the test substances against the FIG-ROS/BaF3 cell is shown in Table 9.

Assay [2] deals with T2, ROS tyrosine kinase (Homo sapiens, UniProt P08922).
T2 construct: purchased Carna Biosciences, Inc
The assay is described as follows: ROS tyrosine kinase inhibitory activity test (ELISA). Format: biochemical, humans. To be noted: 25 μM ATP substrate solution, 30° C., one hour. As for the experimental part:
(§2) 1. Preparation of Test Substance:
(§3) A test substance was dissolved in dimethyl sulfoxide (DMSO) to 10 mM and further diluted with DMSO to concentrations of 100-fold of the concentrations to be measured (100, 10, 1, 0.1, and 0.01 μM). Furthermore, the resultant was diluted with an assay buffer to 20-fold, thereby preparing a solution as a test substance solution. A solution prepared by diluting DMSO with an assay buffer to 20-fold was used as a negative control. A buffer containing 15 mM Tris-Cl (pH 7.5), 0.01 (v/v) % Tween-20, and 1 mM dithiothreitol was used as the assay buffer.
(§4) 2. Measurement of ROS Tyrosine Kinase Activity and JAK2 Tyrosine Kinase Activity:
(§5) The activity was measured by adopting the ELISA method. […] Finally, an ROS kinase or a JAK2 kinase (derived from humans, Carna Biosciences, Inc.) (diluted with the assay buffer to 0.25 nM) was added to the plate at 20 μL per well, and the resulting mixture was stirred. A reaction was performed at 30° C. for one hour. After the plate was washed 4 times with a washing buffer (50 mM Tris-Cl (pH 7.5), 150 mM NaCl, and 0.02 (v/v) % Tween-20), a blocking buffer (0.1% bovine serum albumin, 50 mM Tris-Cl (pH 7.5), 150 mM NaCl, and 0.02 (v/v) % Tween-20) was added to the plate at 150 μL per well, and incubated at 30° C. for 30 minutes. The blocking buffer was then removed, and a horse radish peroxidase-labeled anti-phosphorylated tyrosine antibody (BD Biosciences, Inc.) (diluted with the blocking buffer to 10,000-fold) was added to the plate at 100 μL per well, and the plate was incubated at 30° C. for 30 minutes. After the plate was washed 4 times with the washing buffer, a 3,3′,5,5′-tetramethylbenzidine solution (Sigma-Aldrich Co., Ltd.) was added to the plate at 100 μL per well to develop the color for 10 minutes. The reaction was stopped by adding 0.1 M sulfuric acid at 100 μL per well. An absorbance at 450 nm was measured with a microplate reader (Model 3550, manufactured by BIO-RAD, Benchmark, manufactured by BIO-RAD, or iMARK, manufactured by BIO-RAD).
as §1
(§6) A non-linear regression analysis was performed for the measured absorbance with an SAS system (SAS Institute Inc.), and a concentration of each of the test substances of inhibiting the ROS tyrosine kinase activity or JAK2 tyrosine kinase activity at 50% (IC50) was calculated. The inhibitory activity (IC50, nM) of each of the test substances against the ROS tyrosine kinase or JAK2 tyrosine kinase is shown in Tables 6 to 8.
For orientation: An ELISA detects its analyte on a solid surface through an enzyme-linked reagent.

The target of assay [3] is T3, JAK2 tyrosine kinase (Homo sapiens, UniProt O60674).
T3 construct: purchased Carna Biosciences, Inc
The assay is described as follows: JAK2 tyrosine kinase inhibitory activity test (ELISA). Format: biochemical, humans. To be noted: 25 μM ATP substrate solution, 30° C., one hour. As for the experimental part: as §2, §3, §4, §5, §1, §6

T1 sequence (P08922 whole entry, change not shown, the tested form may be a part): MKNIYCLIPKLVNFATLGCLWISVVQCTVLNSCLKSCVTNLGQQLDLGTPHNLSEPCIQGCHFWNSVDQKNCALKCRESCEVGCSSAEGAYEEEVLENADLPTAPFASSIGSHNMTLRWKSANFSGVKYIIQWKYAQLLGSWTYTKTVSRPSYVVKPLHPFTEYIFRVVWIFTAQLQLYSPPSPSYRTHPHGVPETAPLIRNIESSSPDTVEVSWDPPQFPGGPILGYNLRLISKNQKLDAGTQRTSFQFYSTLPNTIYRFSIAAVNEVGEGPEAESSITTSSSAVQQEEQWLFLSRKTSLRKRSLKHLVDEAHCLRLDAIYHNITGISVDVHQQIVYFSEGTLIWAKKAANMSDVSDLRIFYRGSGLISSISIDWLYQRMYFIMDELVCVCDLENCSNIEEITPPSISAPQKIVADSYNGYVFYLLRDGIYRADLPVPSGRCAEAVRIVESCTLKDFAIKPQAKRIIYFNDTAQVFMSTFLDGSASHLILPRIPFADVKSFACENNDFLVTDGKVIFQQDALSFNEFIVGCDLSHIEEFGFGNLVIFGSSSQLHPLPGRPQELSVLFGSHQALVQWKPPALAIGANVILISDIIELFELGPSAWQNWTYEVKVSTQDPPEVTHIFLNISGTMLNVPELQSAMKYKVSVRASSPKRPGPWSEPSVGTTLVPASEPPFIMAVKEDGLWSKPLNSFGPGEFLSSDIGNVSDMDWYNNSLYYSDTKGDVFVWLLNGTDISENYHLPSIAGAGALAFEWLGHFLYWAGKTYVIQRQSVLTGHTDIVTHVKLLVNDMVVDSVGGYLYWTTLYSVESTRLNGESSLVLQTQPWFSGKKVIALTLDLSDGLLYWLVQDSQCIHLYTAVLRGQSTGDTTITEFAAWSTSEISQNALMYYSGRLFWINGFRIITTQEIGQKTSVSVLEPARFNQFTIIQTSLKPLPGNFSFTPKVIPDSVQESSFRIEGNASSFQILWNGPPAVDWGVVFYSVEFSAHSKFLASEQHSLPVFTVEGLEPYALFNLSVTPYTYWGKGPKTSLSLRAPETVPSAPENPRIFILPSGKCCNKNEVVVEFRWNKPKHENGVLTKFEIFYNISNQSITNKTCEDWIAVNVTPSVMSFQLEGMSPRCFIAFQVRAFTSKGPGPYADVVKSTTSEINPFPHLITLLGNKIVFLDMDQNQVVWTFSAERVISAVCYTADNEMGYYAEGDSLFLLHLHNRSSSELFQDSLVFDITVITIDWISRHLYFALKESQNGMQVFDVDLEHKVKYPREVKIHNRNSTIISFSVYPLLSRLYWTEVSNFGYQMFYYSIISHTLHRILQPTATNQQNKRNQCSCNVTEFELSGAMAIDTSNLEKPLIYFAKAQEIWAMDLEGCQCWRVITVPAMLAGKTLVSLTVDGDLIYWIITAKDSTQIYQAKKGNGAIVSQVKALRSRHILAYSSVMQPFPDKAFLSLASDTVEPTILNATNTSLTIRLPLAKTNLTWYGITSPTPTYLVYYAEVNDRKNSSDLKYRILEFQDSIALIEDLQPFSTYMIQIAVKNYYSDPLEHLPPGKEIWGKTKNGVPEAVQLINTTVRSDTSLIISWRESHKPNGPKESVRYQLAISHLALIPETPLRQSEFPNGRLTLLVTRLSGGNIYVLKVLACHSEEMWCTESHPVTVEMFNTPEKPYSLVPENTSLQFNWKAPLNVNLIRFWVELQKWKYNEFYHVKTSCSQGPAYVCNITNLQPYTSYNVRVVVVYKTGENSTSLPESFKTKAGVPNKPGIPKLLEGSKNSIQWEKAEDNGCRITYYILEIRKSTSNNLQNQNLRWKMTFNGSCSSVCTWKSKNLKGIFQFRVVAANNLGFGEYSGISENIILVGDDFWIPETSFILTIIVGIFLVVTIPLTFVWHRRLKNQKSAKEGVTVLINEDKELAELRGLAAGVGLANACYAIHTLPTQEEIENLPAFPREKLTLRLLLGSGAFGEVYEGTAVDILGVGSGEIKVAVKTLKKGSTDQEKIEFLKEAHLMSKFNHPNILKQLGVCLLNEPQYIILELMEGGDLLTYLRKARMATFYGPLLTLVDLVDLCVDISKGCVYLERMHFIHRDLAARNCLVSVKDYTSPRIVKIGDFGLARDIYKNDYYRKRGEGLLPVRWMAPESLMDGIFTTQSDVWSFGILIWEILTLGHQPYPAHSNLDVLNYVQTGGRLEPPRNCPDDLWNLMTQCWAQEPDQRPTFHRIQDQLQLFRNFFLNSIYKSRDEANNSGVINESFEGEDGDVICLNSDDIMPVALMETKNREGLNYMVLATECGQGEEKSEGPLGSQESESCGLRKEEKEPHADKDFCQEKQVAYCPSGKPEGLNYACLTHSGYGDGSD
T3 sequence (O60674 whole entry): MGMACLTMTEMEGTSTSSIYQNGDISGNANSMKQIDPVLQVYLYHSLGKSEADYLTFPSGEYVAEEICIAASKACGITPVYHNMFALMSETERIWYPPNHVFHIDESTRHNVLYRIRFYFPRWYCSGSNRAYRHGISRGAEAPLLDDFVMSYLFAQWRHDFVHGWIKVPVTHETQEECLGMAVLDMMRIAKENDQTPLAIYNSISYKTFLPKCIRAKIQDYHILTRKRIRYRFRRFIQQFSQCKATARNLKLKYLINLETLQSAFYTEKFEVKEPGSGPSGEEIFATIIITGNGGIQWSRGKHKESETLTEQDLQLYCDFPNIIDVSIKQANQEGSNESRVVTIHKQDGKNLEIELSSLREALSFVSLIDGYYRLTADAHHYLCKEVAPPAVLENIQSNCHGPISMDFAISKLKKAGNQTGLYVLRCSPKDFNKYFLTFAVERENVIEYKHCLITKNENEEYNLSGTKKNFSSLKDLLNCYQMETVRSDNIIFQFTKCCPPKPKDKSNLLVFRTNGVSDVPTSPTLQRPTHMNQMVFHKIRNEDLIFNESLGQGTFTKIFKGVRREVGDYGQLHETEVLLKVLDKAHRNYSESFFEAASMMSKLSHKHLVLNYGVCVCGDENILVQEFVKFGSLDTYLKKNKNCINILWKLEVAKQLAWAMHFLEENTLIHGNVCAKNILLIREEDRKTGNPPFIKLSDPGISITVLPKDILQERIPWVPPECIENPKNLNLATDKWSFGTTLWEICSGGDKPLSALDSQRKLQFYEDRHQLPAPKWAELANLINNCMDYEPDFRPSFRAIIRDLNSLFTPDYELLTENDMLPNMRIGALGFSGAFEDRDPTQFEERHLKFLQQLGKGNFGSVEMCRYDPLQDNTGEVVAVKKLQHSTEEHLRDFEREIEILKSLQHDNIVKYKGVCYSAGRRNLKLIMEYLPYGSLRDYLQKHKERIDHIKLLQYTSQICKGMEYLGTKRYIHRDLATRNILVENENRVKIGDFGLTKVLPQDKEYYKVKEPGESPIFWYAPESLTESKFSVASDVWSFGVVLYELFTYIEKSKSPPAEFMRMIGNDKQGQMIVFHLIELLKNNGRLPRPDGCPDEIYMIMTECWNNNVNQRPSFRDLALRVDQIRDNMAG

For orientation: IC50 means the concentration that gives 50% inhibition. Low readings indicate greater potency in that assay, high ones weaker potency in that assay. With `COc1ccc(-c2nc(N3CCCC3c3ccc(C)cc3)nc(Nc3ncc(C#N)s3)c2C)cn1` (stereo not drawn) [Example 15, 2-({6-(6-Methoxypyridin-3-yl)-5-methyl-2-[2-(4-methylphenyl)pyrrolidin-1-yl]pyrimidin-4-yl}amino)-1,3-thiazole-5-carbonitrile], the GI50 in assay [1] was found to be 20 nM. The values for the 50% inhibitory concentration (IC50) in assay [2] and in assay [3] were 16 nM and more than 1000 nM, respectively.
On the same counts, the results for `COc1cnc(N2CCCC2c2ccc(C)cc2)nc1Nc1ncc(C#N)s1` (stereo not drawn) [Example 19, 2-({5-Methoxy-2-[2-(4-methylphenyl)pyrrolidin-1-yl]pyrimidin-4-yl}amino)-1,3-thiazole-5-carbonitrile] are 2.9 nM, 2.6 nM and 220 nM.
In the same order, the values of `N#Cc1cnc(Nc2nc(N3CCCC3c3ccc(F)cc3)cnc2-c2ccncc2)s1` (stereo not drawn) [Example 26, 2-({6-[2-(4-Fluorophenyl)pyrrolidin-1-yl]-3-(pyridin-4-yl)pyrazin-2-yl}amino)-1,3-thiazole-5-carbonitrile] are 10 nM, 12 nM and more than 1000 nM.
Take `Cc1ccc(C2CCCN2c2cc(C(F)(F)F)cc(Nc3ncc(C#N)s3)n2)cc1` (stereo not drawn) [Example 27, 2-({6-[2-(4-Methylphenyl)pyrrolidin-1-yl]-4-(trifluoromethyl)pyridin-2-yl}amino)-1,3-thiazole-5-carbonitrile]: the GI50 in assay [1] came to 27 nM. Besides, the IC50 is 65 nM in assay [2] and more than 1000 nM in assay [3].
Turning to `Cc1ccc([C@@H]2CCCN2c2cnc(C)c(Nc3ncc(C)s3)n2)cc1` [Example 29, 3-Methyl-6-[(2S)-2-(4-methylphenyl)pyrrolidin-1-yl]-N-(5-methyl-1,3-thiazol-2-yl)pyrazine-2-amine], the GI50 in assay [1] is 4.3 nM. Besides, the IC50 in assay [2] turned out to be 1.3 nM; in assay [3], 140 nM.
On the same counts, the results for `COc1cc(OC)cc(C2CCCN2c2cncc(Nc3ncc(C#N)s3)n2)c1` (stereo not drawn) [Example 32, 2-({6-[2-(3,5-Dimethoxyphenyl)pyrrolidin-1-yl]pyrazin-2-yl}amino)-1,3-thiazol-5-carbonitrile] are 33 nM, 4.4 nM and more than 1000 nM.
On the same counts, the results for `Cc1ccc([C@@H]2CCCN2c2cnc(C3CC3)c(Nc3ncc(C)s3)n2)cc1` [Example 34, 3-Cyclopropyl-6-[(2S)-2-(4-methylphenyl)pyrrolidin-1-yl]-N-(5-methyl-1,3-thiazol-2-yl)pyrazine-2-amine] are 12 nM, 4.1 nM and more than 1000 nM.
As for `N#Cc1cnc(Nc2cncc(N3CCCC3c3ccc(C(F)(F)F)cc3)n2)s1` (stereo not drawn) [Example 39, 2-[(6-{2-[4-(Trifluoromethyl)phenyl]pyrrolidin-1-yl}pyrazin-2-yl)amino]-1,3-thiazole-5-carbonitrile], the GI50 in assay [1] is 4.5 nM. Also, the figures for the IC50 in assay [2] and in assay [3] were 12 nM and more than 1000 nM, respectively.
On the same counts, the results for `Cc1ccc(C2CCCN2c2nc(Nc3ncc(C#N)s3)c(C)nc2C)cc1` (stereo not drawn) [Example 43, 2-({3,5-Dimethyl-6-[2-(4-methylphenyl)pyrrolidin-1-yl]pyrazin-2-yl}amino)-1,3-thiazole-5-carbonitrile] are 2.1 nM, 4.2 nM and more than 1000 nM.
On the same counts, the results for `CCc1cnc(Nc2cncc(N3CCCC3c3ccc(C)cc3)n2)s1` (stereo not drawn) [Example 45, N-(5-Ethyl-1,3-thiazol-2-yl)-6-[2-(4-methylphenyl)pyrrolidin-1-yl]pyrazine-2-amine] are 7.6 nM, 7.3 nM and 210 nM.
On to `N#Cc1cnc(Nc2cncc(N3CCCC3c3ccc(Cl)cc3)n2)s1` (stereo not drawn) [Example 48, 2-({6-[2-(4-Chlorophenyl)pyrrolidin-1-yl]pyrazin-2-yl}amino)-1,3-thiazole-5-carbonitrile], for which the GI50 in assay [1] came out at 1.9 nM. Further, the concentration for half-maximal inhibition (IC50) in assay [2] was determined as 0.6 nM; in assay [3], 31 nM.
In the case of `COc1c(Nc2ncc(C#N)s2)nc(N2CCCC2c2ccc(C)cc2)nc1-c1ccc(F)nc1` (stereo not drawn) [Example 50, 2-({6-(6-Fluoropyridin-3-yl)-5-methoxy-2-[2-(4-methylphenyl)pyrrolidin-1-yl]pyrimidin-4-yl}amino)-1,3-thiazole-5-carbonitrile], in assay [1], the GI50 was determined as 9.4 nM. For the same compound, the half-maximal inhibitory concentration (IC50) was 12 nM in assay [2] and not below 1000 nM in assay [3].
On to `CCOC(=O)c1cnc(Nc2cncc(N3CCCC3c3ccc(C)cc3)n2)s1` (stereo not drawn) [Example 51, Ethyl 2-({6-[2-(4-methylphenyl)pyrrolidin-1-yl]pyrazin-2-yl}amino)-1,3-thiazole-5-carboxylate], for which the GI50 in assay [1] turned out to be 160 nM. Also, the IC50 worked out at 88 nM in assay [2] and 930 nM in assay [3].
In the same order, the values of `Cc1ccc([C@@H]2CCCN2c2nc(Nc3ncc(C#N)s3)c(C)c(C(=O)NC3CCN(C)CC3)n2)cc1` [Example 54, 6-[(5-Cyano-1,3-thiazol-2-yl)amino]-5-methyl-2-[(2S)-2-(4-methylphenyl)pyrrolidin-1-yl]-N-(l-methylpiperidin-4-yl)pyrimidine-4-carboxamide] are 0.4 nM, 3.9 nM and 190 nM.
On the same counts, the results for `CNC(=O)c1cc(N2CCC[C@H]2c2ccc(C)cc2)nc(Nc2ncc(C#N)s2)c1C` [Example 55, 2-[(5-Cyano-1,3-thiazol-2-yl)amino]-N,3-dimethyl-6-[(2S)-2-(4-methylphenyl)pyrrolidin-1-yl]pyridine-4-carboxamide] are 0.3 nM, 0.6 nM and 24 nM.
On the same counts, the results for `COc1c(C)nc(N2CCC[C@H]2c2ccc(C)cc2)nc1Nc1ncc(F)s1` [Example 56, N-(5-Fluoro-1,3-thiazol-2-yl)-5-methoxy-6-methyl-2-[(2S)-2-(4-methylphenyl)pyrrolidin-1-yl]pyrimidine-4-amine] are 8.2 nM, 6.7 nM and more than 1000 nM.
As for `CCc1c(COC)nc(N2CCC[C@H]2c2ccc(C)cc2)nc1Nc1ncc(C#N)s1` [Example 57, 2-({5-Ethyl-6-(methoxymethyl)-2-[(2S)-2-(4-methylphenyl)pyrrolidin-1-yl]pyrimidin-4-yl}amino)-1,3-thiazole-5-carbo nitrile], the GI50 in assay [1] was 1.8 nM. The IC50 is 2.7 nM in assay [2] and more than 1000 nM in assay [3].
`COc1c(Nc2ncc(C#N)s2)nc(N2CCC[C@H]2c2ccc(C)cc2)nc1-c1cnn(CCO)c1` [Example 59, 2-({6-[1-(2-Hydroxyethyl)-1H-pyrazol-4-yl]-5-methoxy-2-[(2S)-2-(4-methylphenyl)pyrrolidin-1-yl]pyrimidin-4-yl}amino)-1,3-thiazole-5-carbonitrile]: the GI50 in assay [1] amounted to 1.3 nM. Also, the half-maximal inhibitory concentration (IC50) in assay [2] amounted to 1.5 nM; in assay [3] it was 190 nM.
